Values after ≈ are worked out from the molar mass of the structure shown. Read-outs that look alike come from different tables or passages of the source.
Legend:
[1] = system: Enterococcus faecalis (EFA); assay: MIC, two-fold agar dilution (CLSI), clinical isolates; format: cell-based
In short: (§1)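 Test samples were assayed by the CLSI-recommended two-fold agar dilution method, and the minimum inhibitory concentration against each tested strain was determined.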

[2] = system: Escherichia coli (including ESBLs, non-ESBLs); assay: as above; format: cell-based
In short: as §1

[3] = system: methicillin-resistant Staphylococcus aureus (MRSA); assay: as above; format: cell-based
In short: as §1

[4] = system: methicillin-resistant Staphylococcus epidermidis (MRSE); assay: as above; format: cell-based
In short: as §1

[5] = system: methicillin-sensitive Staphylococcus aureus (MSSA); assay: as above; format: cell-based
In short: as §1

[6] = system: methicillin-sensitive Staphylococcus epidermidis (MSSE); assay: as above; format: cell-based
In short: as §1

[7] = system: HCT-116 colorectal cancer cell line; assay: CCK-8 proliferation inhibition; format: cell-based; conditions: Homo sapiens, HCT-116, 72 h, read-out: HCT116 inhibition rate/%
In short: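 HCT-116 cells, seeded at 2000 cells/well in McCoy's 5A with 10% newborn bovine serum, were cultured overnight at 37° C., 5% CO2, then exposed to compound dilutions in medium for 72 hours. Viability was read with 1:10 diluted CCK-8; controls received 1‰ DMSO.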

[8] = system: methemoglobin in blood samples of three healthy volunteers; assay: Toxicity on methemoglobin in vitro (whole blood with S9 and NADPH, absorbance at 630 nm); format: cell-based, human; conditions: for MetHb % (n = 3): 500 μM compound, whole blood + S9 + NADPH, 5 hours at 37° C.; for probability of methemoglobin formation in blood compared with the control drugs LBM415 and GSK1322322: toxicity test in vitro, in words
Method: Because PDF inhibitors such as LBM415 and GSK1322322 can produce active species such as aromatic hydroxylamine and aromatic hydrazines in metabolic process, and cause human methemoglobinemia. To this end, continuous wavelength method was adopted in this invention to scan the absorption spectrum of blood samples in the wavelength range of 500 to 700 nm in the ultraviolet-visible spectrophotometer, and the contents of methemoglobin in blood samples of three healthy volunteers were calculated, after being effected by the synthesized compounds.
Experimental materials: Nicotinamide adenine dinucleotide phosphate (NADPH) reduction system: glucose-6-disodium phosphate, nicotinamide adenine dinucleoside phosphate and glucose-6-phosphate dehydrogenase (purchased from Shanghai yuanye Bio-Technology Co., Ltd) were added to 1 mL of phosphate buffer solution (PBS, pH 7.4), and the mixture was shaked in a shaker type water bath at 37° C. for 10 min, and then cooled to 0° C. Mixed human hepatocytes fraction S9 was purchased from Xenotech (20 mg S9 protein/1 mL suspension medium). Compounds were prepared to stock solution at a concentration of 50 mM, which was stored at −20° C. for use. Dapsone was used as positive control experimental reagent, which was purchased from Sigma Aldrich. 1% w/v triton X-100 was self-prepared. Blood samples were collected using Vacutainer tubes containing EDTA anticoagulants (BD, Franklin Lakes, USA), which were sampled from three healthy volunteers and used immediately after sampling.
Preparation of incubation system for blood samples and drugs: 250 μL of incubation system was consist of 220 μL of whole blood, 25 μL of S9 (final concentration: 2 mg S9 protein/mL incubation solution), 2.5 μL of NADPH form system (final concentration: 10 mM G-6-P, 1 mM NADP, 7.5 Units/mL) and 2.5 μL of stock solution of a compound (final concentration 500 μM). […] of incubation system was placed in an Eppendorf tube and incubated for 5 hours at 37° C. in water bath.
Determination of the content of methemoglobin: 60 μL of an incubated sample was taken and lysed with 3.0 mL of 1% Triton X-100. The content of methemoglobin (MetHb) was measured by an ultraviolet-visible spectrophotometer, with the Triton X-100 solution used as blank control. A sample was placed in a cuvette, 1 minute later, the spectrums of the sample in the wavelength range from 500 nm to 700 nm were recorded. The sample was added with 2 mg of potassium ferricyanide, and was allowed to stay stationary for 2 minutes for completely oxidization of ferrous iron in the sample, and standard spectrum of methemoglobin with saturated potassium ferricyanide. The percentage of methemoglobin formation (MetHb %) was obtained by the ratio of absorbance at 630 nm. MetHb %=(A′−AB′)/AM′, wherein, A′ was the total absorbance of the sample at 630 nm, AB′ was the base absorbance of the reduced blood in the sample at 630 nm, and AM′ was the absorbance of oxidized blood with saturated potassium ferricyanide at 630 nm.

[9] = MIC in vitro anti-bacterial experiments, Gram-positive bacteria; format: cell-based; conditions: lowest MIC reached; read-out: minimum inhibitory concentration against Gram-positive bacteria
Text: 1. The invention adopts the two-fold agar dilution method recommended by the operating procedure of antimicrobial susceptibility testing set by American Clinical and Laboratory Standards Institute (CLSI) to determine the Minimum Inhibitory Concentration (MIC) of the test samples against the tested strains.

[10] = strain printed MRSA 14-1 (second line of that name, r23, before MRSE 14-2)
[11] = concentration of 30 μM, 72 hours, CCK-8

| SMILES | MIC (anti-bacterial activity) ([1]; strain EFA 14-1) [µg/mL] | MIC (anti-bacterial activity) ([1]; strain EFA 14-2) [µg/mL] | MIC (anti-bacterial activity) ([1]; strain EFA 14-3) [µg/mL] | MIC (anti-bacterial activity) ([1]; strain EFA 14-5) [µg/mL] | MIC (anti-bacterial activity) ([2]; strain ECO+ 14-1) [µg/mL] | MIC (anti-bacterial activity) ([2]; strain ECO+ 14-2) [µg/mL] | MIC (anti-bacterial activity) ([2]; strain ECO− 14-1) [µg/mL] | MIC (anti-bacterial activity) ([2]; strain ECO− 14-2) [µg/mL] | MIC (anti-bacterial activity) ([3]; strain MRSA 14-1) [µg/mL] | MIC (anti-bacterial activity) ([3]; strain MRSA 14-2) [µg/mL] | MIC (anti-bacterial activity) ([3]; strain MRSA 14-4) [µg/mL] | MIC (anti-bacterial activity) ([3]; strain MRSA 14-5) [µg/mL] | MIC (anti-bacterial activity) [3, 10] [µg/mL] | MIC (anti-bacterial activity) ([4]; strain MRSE 14-2) [µg/mL] | MIC (anti-bacterial activity) ([4]; strain MRSE 14-3) [µg/mL] | MIC (anti-bacterial activity) ([4]; strain MRSE 14-4) [µg/mL] | MIC (anti-bacterial activity) ([5]; strain MSSA 14-1) [µg/mL] | MIC (anti-bacterial activity) ([5]; strain MSSA 14-2) [µg/mL] | MIC (anti-bacterial activity) ([5]; strain MSSA 14-3) [µg/mL] | MIC (anti-bacterial activity) ([5]; strain MSSA 14-4) [µg/mL] | other results |
| --- | --- | --- | --- | --- | --- | --- | --- | --- | --- | --- | --- | --- | --- | --- | --- | --- | --- | --- | --- | --- | --- |
| CCCC[C@H](CN(O)C=O)C(=O)N1CC2(CC2)C[C@H]1C(=O)Nc1ccc(F)c[n+]1[O-] [Example 2] | 0.25 (≈ 0.592 µM) | 0.5 (≈ 1.18 µM) | 0.5 (≈ 1.18 µM) | 128 (≈ 303 µM) | 1 (≈ 2.37 µM) | 64 (≈ 151 µM) | 128 (≈ 303 µM) | 64 (≈ 151 µM) | 0.25 (≈ 0.592 µM) | 0.25 (≈ 0.592 µM) | 0.125 (≈ 0.296 µM) | 0.125 (≈ 0.296 µM) | 0.03 (≈ 0.071 µM) | 0.06 (≈ 0.142 µM) | 0.06 (≈ 0.142 µM) | 0.125 (≈ 0.296 µM) | 0.125 (≈ 0.296 µM) | 0.125 (≈ 0.296 µM) | 0.125 (≈ 0.296 µM) | 0.125 (≈ 0.296 µM) | MIC ([3]; Staphylococcus aureus, MRSA, range over strains, read-out: minimum inhibitory concentration MIC against methicillin-resistant Staphylococcus (MRSA)): 0.125 to 0.25 µg/mL (≈ 0.296 to 0.592 µM); MIC (anti-bacterial activity) ([6]; strain MSSE 14-1): 0.03 µg/mL (≈ 0.071 µM); MIC (anti-bacterial activity) ([6]; strain MSSE 14-2): 0.125 µg/mL (≈ 0.296 µM); MIC (anti-bacterial activity) ([6]; strain MSSE 14-3): 0.03 µg/mL (≈ 0.071 µM); MIC (anti-bacterial activity) ([6]; strain MSSE 14-4): 0.03 µg/mL (≈ 0.071 µM); inhibition at 30 µM [7, 11]: 2%; MetHb % (n = 3) [8]: 3.32 ± 0.05%; probability of methemoglobin formation in blood compared with the control drugs LBM415 and GSK1322322 [8]: lower probability of methemoglobin formation in blood |
| CCCC[C@H](CN(O)C=O)C(=O)N1CC2(CC2)C[C@H]1C(=O)Nc1ccc(C)c(Nc2nccc(-c3cccnc3)n2)c1 [Example 4] | 0.03 (≈ 0.0525 µM) | 0.015 (≈ 0.0262 µM) | 0.03 (≈ 0.0525 µM) | > 128 | 4 (≈ 7 µM) | > 128 | > 128 | > 128 | 0.015 (≈ 0.0262 µM) | 0.015 (≈ 0.0262 µM) | < 0.008 | < 0.008 | < 0.008 | < 0.008 | < 0.008 | < 0.008 | 0.015 (≈ 0.0262 µM) | 0.015 (≈ 0.0262 µM) | 0.015 (≈ 0.0262 µM) | 0.015 (≈ 0.0262 µM) | MIC (anti-bacterial activity) ([6]; strain MSSE 14-1): 0.015 µg/mL (≈ 0.0262 µM); MIC (anti-bacterial activity) ([6]; strain MSSE 14-2): < 0.008 µg/mL; MIC (anti-bacterial activity) ([6]; strain MSSE 14-3): < 0.008 µg/mL; MIC (anti-bacterial activity) ([6]; strain MSSE 14-4): 0.015 µg/mL (≈ 0.0262 µM); inhibition at 30 µM [7, 11]: 18%; MIC [9]: < 0.008 µg/mL |
| CCCC[C@H](CN(O)C=O)C(=O)N1CC2(CC2)C[C@H]1C(=O)Nc1cccc(Nc2ncccn2)c1 [Example 8] | 0.5 (≈ 1.04 µM) | 1 (≈ 2.08 µM) | 1 (≈ 2.08 µM) | 1 (≈ 2.08 µM) | 1 (≈ 2.08 µM) | 64 (≈ 133 µM) | 128 (≈ 266 µM) | 128 (≈ 266 µM) | 0.25 (≈ 0.52 µM) | 0.25 (≈ 0.52 µM) | 0.25 (≈ 0.52 µM) | 0.125 (≈ 0.26 µM) | 0.125 (≈ 0.26 µM) | 0.25 (≈ 0.52 µM) | 0.06 (≈ 0.125 µM) | 0.25 (≈ 0.52 µM) | 0.25 (≈ 0.52 µM) | 0.25 (≈ 0.52 µM) | 0.25 (≈ 0.52 µM) | 0.125 (≈ 0.26 µM) | MIC (anti-bacterial activity) ([6]; strain MSSE 14-1): 0.125 µg/mL (≈ 0.26 µM); MIC (anti-bacterial activity) ([6]; strain MSSE 14-2): 0.25 µg/mL (≈ 0.52 µM); MIC (anti-bacterial activity) ([6]; strain MSSE 14-3): 0.125 µg/mL (≈ 0.26 µM); MIC (anti-bacterial activity) ([6]; strain MSSE 14-4): 0.25 µg/mL (≈ 0.52 µM); inhibition at 30 µM [7]: 11%; MetHb % (n = 3) [8]: 4.12 ± 0.07%; probability of methemoglobin formation in blood compared with the control drugs LBM415 and GSK1322322 [8]: lower probability of methemoglobin formation in blood |
| CCCC[C@H](CN(O)C=O)C(=O)N1CC2(CC2)C[C@H]1C(=O)Nc1nccc(-c2cccnc2)n1 [Example 9] | 0.5 (≈ 1.07 µM) | 0.5 (≈ 1.07 µM) | 1 (≈ 2.14 µM) | 0.5 (≈ 1.07 µM) | 2 (≈ 4.29 µM) | > 64 | > 64 | > 64 | 2 (≈ 4.29 µM) | 0.5 (≈ 1.07 µM) | 2 (≈ 4.29 µM) | 0.25 (≈ 0.536 µM) | 0.25 (≈ 0.536 µM) | 0.25 (≈ 0.536 µM) | 0.125 (≈ 0.268 µM) | 0.5 (≈ 1.07 µM) | 0.25 (≈ 0.536 µM) | 0.5 (≈ 1.07 µM) | 0.5 (≈ 1.07 µM) | 0.25 (≈ 0.536 µM) | MIC (anti-bacterial activity) ([6]; strain MSSE 14-1): 0.125 µg/mL (≈ 0.268 µM); MIC (anti-bacterial activity) ([6]; strain MSSE 14-2): 0.5 µg/mL (≈ 1.07 µM); MIC (anti-bacterial activity) ([6]; strain MSSE 14-3): 0.25 µg/mL (≈ 0.536 µM); MIC (anti-bacterial activity) ([6]; strain MSSE 14-4): 0.5 µg/mL (≈ 1.07 µM); inhibition at 30 µM [7]: 6%; MetHb % (n = 3) [8]: 1.13 ± 0.06%; probability of methemoglobin formation in blood compared with the control drugs LBM415 and GSK1322322 [8]: lower probability of methemoglobin formation in blood |

— US10738028B2, “Spiro three-membered ring, spiro five-membered ring peptide deformylase inhibitor and use thereof in antibacteria and anti-tumor” (priority 2016, dated 2020)
